According to PubChem BioAssay AID1845215 (Molecular Pharmacology Branch, DTP, NCI, 2023):
Several values for one entry are separate records, joined by “and”; a condition that tells them apart may be missing. Equal values may be shown once. Values belong to the molecule of their own block, whether it stands above or below them.

System: SW 1271 complex tumor spheroid viability
Assay: Anticancer human tumor SW 1271 cell line growth inhibition;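 note: spheroids exposed to agents for seven days before readout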;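 for viability, T/C: percent of DMSO vehicle control luminescence so 100% = vehicle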
Settings: for viability, T/C: stronger effect = lower value
Summary of the method: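 Complex spheroids of malignant cells with endothelial cells and mesenchymal stem cells; agents alone or combined, from near clinical Cmax (or 10 microM if unknown) down in half-log steps, 0.25% DMSO final.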

[1] = curve of first compound, second compound 30 pM
[2] = curve of first compound, second compound 94.9 pM
[3] = curve of first compound, second compound 0.0003 µM
[4] = curve of first compound, second compound 0.000949 µM
[5] = curve of first compound, second compound 0.003 µM
[6] = second compound 30 pM, first compound 0.0316 µM
[7] = second compound 30 pM, first compound 0.1 µM
[8] = second compound 30 pM, first compound 0.316 µM
[9] = second compound 30 pM, first compound 1 µM
[10] = second compound 30 pM, first compound 3.16 µM
[11] = second compound 30 pM, first compound 10 µM
[12] = second compound 94.9 pM, first compound 0.0316 µM
[13] = second compound 94.9 pM, first compound 0.1 µM
[14] = second compound 94.9 pM, first compound 0.316 µM
[15] = second compound 94.9 pM, first compound 1 µM
[16] = second compound 94.9 pM, first compound 3.16 µM
[17] = second compound 94.9 pM, first compound 10 µM
[18] = second compound 0.0003 µM, first compound 0.0316 µM
[19] = second compound 0.0003 µM, first compound 0.1 µM
[20] = second compound 0.0003 µM, first compound 0.316 µM
[21] = second compound 0.0003 µM, first compound 1 µM
[22] = second compound 0.0003 µM, first compound 3.16 µM
[23] = second compound 0.0003 µM, first compound 10 µM
[24] = second compound 0.000949 µM, first compound 0.0316 µM
[25] = second compound 0.000949 µM, first compound 0.1 µM
[26] = second compound 0.000949 µM, first compound 0.316 µM
[27] = second compound 0.000949 µM, first compound 1 µM
[28] = second compound 0.000949 µM, first compound 3.16 µM
[29] = second compound 0.000949 µM, first compound 10 µM
[30] = second compound 0.003 µM, first compound 0.0316 µM
[31] = second compound 0.003 µM, first compound 0.1 µM
[32] = second compound 0.003 µM, first compound 0.316 µM
[33] = second compound 0.003 µM, first compound 1 µM
[34] = second compound 0.003 µM, first compound 3.16 µM
[35] = second compound 0.003 µM, first compound 10 µM
[36] = curve of first compound, second compound 0.00949 µM
[37] = curve of first compound, second compound 0.03 µM
[38] = curve of first compound, second compound 0.0949 µM
[39] = curve of first compound, second compound 0.3 µM
[40] = second compound 0.00949 µM, first compound 0.0316 µM
[41] = second compound 0.00949 µM, first compound 0.1 µM
[42] = second compound 0.00949 µM, first compound 0.316 µM
[43] = second compound 0.00949 µM, first compound 1 µM
[44] = second compound 0.00949 µM, first compound 3.16 µM
[45] = second compound 0.00949 µM, first compound 10 µM
[46] = second compound 0.03 µM, first compound 0.0316 µM
[47] = second compound 0.03 µM, first compound 0.1 µM
[48] = second compound 0.03 µM, first compound 0.316 µM
[49] = second compound 0.03 µM, first compound 1 µM
[50] = second compound 0.03 µM, first compound 3.16 µM
[51] = second compound 0.03 µM, first compound 10 µM
[52] = second compound 0.0949 µM, first compound 0.0316 µM
[53] = second compound 0.0949 µM, first compound 0.1 µM
[54] = second compound 0.0949 µM, first compound 0.316 µM
[55] = second compound 0.0949 µM, first compound 1 µM
[56] = second compound 0.0949 µM, first compound 3.16 µM
[57] = second compound 0.0949 µM, first compound 10 µM
[58] = second compound 0.3 µM, first compound 0.0316 µM
[59] = second compound 0.3 µM, first compound 0.1 µM
[60] = second compound 0.3 µM, first compound 0.316 µM
[61] = second compound 0.3 µM, first compound 1 µM
[62] = second compound 0.3 µM, first compound 3.16 µM
[63] = second compound 0.3 µM, first compound 10 µM

SMILES: Cc1cc(C)c(CNC(=O)c2cc(-c3ccc(CN4CCOCC4)cc3)cc3c2cnn3C2CCCC2)c(=O)[nH]1 + COc1cc2c(cc1O)CCNC21CSC2c3c(OC(C)=O)c(C)c4c(c3C(COC1=O)N1C(O)C3Cc5cc(C)c(OC)c(O)c5C(C21)N3C)OCO4
IC50 [1]: > 10000 nM | IC50 [2]: 987 nM | IC50 [3]: < 31.6 nM | IC50 [4]: < 31.6 nM | IC50 [5]: < 31.6 nM | viability, T/C [6]: 86.2% | viability, T/C [7]: 92.9% | viability, T/C [8]: 90.4% | viability, T/C [9]: 87.4% | viability, T/C [10]: 84.5% | viability, T/C [11]: 66.2% | viability, T/C [12]: 59.6% | viability, T/C [13]: 63.3% | viability, T/C [14]: 66.6% | viability, T/C [15]: 49.8% | viability, T/C [16]: 40.7% | viability, T/C [17]: 34.4% | viability, T/C [18]: 32.9% | viability, T/C [19]: 35.7% | viability, T/C [20]: 34.1% | viability, T/C [21]: 30.3% | viability, T/C [22]: 29.3% | viability, T/C [23]: 24% | viability, T/C [24]: 2.96% | viability, T/C [25]: 14.8% | viability, T/C [26]: 2.88% | viability, T/C [27]: 3.26% | viability, T/C [28]: 1.94% | viability, T/C [29]: 1.96% | viability, T/C [30]: 0.23% | viability, T/C [31]: 0.24% | viability, T/C [32]: 0.28% | viability, T/C [33]: 0.25% | viability, T/C [34]: 0.21% | viability, T/C [35]: 0.29%

IC50 (compound alone, run of 11/07/2019): > 100000 nM and 20700 nM
SMILES: Cn1nnc2c(C(N)=O)ncn2c1=O
viability, T/C (compound 1 µM): 97% [middle of 10 runs] | viability, T/C (compound 3.16 µM): 103% [middle of 10 runs]

SMILES: COc1ccc([C@@H](O)c2cc(-c3ncnc4cc(N5CCOCC5)ccc34)c(F)cc2Cl)nn1 + CC[C@@]1(O)C(=O)OCc2c1cc1n(c2=O)Cc2cc3c(CN(C)C)c(O)ccc3nc2-1
IC50 [5]: 1230 nM | IC50 [36]: 103 nM | IC50 [37]: < 31.6 nM | IC50 [38]: < 31.6 nM | IC50 [39]: < 31.6 nM | viability, T/C [30]: 83.3% | viability, T/C [31]: 85.1% | viability, T/C [32]: 75.2% | viability, T/C [33]: 54.3% | viability, T/C [34]: 26.9% | viability, T/C [35]: 6.38% | viability, T/C [40]: 57.9% | viability, T/C [41]: 53% | viability, T/C [42]: 37.9% | viability, T/C [43]: 29.6% | viability, T/C [44]: 19.6% | viability, T/C [45]: 6.43% | viability, T/C [46]: 31.5% | viability, T/C [47]: 31.1% | viability, T/C [48]: 28.8% | viability, T/C [49]: 28.6% | viability, T/C [50]: 19.9% | viability, T/C [51]: 6.27% | viability, T/C [52]: 27.9% | viability, T/C [53]: 27.6% | viability, T/C [54]: 25% | viability, T/C [55]: 25.9% | viability, T/C [56]: 21.7% | viability, T/C [57]: 3.71% | viability, T/C [58]: 13% | viability, T/C [59]: 14.8% | viability, T/C [60]: 15% | viability, T/C [61]: 10.2% | viability, T/C [62]: 1.72% | viability, T/C [63]: 0.2%

SMILES: COc1cc(C)[nH]c(=O)c1CN1CCc2c(Cl)cc(C(OC)C3COC3)c(Cl)c2C1=O (stereo not drawn) + CC[C@@]1(O)C(=O)OCc2c1cc1n(c2=O)Cc2cc3c(CN(C)C)c(O)ccc3nc2-1
IC50 [5]: > 10000 nM | IC50 [36]: > 10000 nM | IC50 [37]: < 31.6 nM | IC50 [38]: < 31.6 nM | IC50 [39]: < 31.6 nM | viability, T/C [30]: 90.4% | viability, T/C [31]: 94.9% | viability, T/C [32]: 93.3% | viability, T/C [33]: 93.3% | viability, T/C [34]: 85.3% | viability, T/C [35]: 75.2% | viability, T/C [40]: 73.6% | viability, T/C [41]: 70.4% | viability, T/C [42]: 69.6% | viability, T/C [43]: 57.3% | viability, T/C [44]: 64.9% | viability, T/C [45]: 56.5% | viability, T/C [46]: 29.6% | viability, T/C [47]: 28.5% | viability, T/C [48]: 34.3% | viability, T/C [49]: 31.1% | viability, T/C [50]: 32.4% | viability, T/C [51]: 31% | viability, T/C [52]: 28.8% | viability, T/C [53]: 30.5% | viability, T/C [54]: 29.5% | viability, T/C [55]: 32.5% | viability, T/C [56]: 33.1% | viability, T/C [57]: 23.5% | viability, T/C [58]: 14.2% | viability, T/C [59]: 16.1% | viability, T/C [60]: 18.8% | viability, T/C [61]: 16.7% | viability, T/C [62]: 13.7% | viability, T/C [63]: 10.9%

SMILES: CC1COCCN1c1cc(-c2ccnn2C)c2ccnc(-c3ccn[nH]3)c2n1 (stereo not drawn) + COc1cc2c(cc1O)CCNC21CSC2c3c(OC(C)=O)c(C)c4c(c3C(COC1=O)N1C(O)C3Cc5cc(C)c(OC)c(O)c5C(C21)N3C)OCO4
IC50 [1]: < 31.6 nM | IC50 [2]: < 31.6 nM | IC50 [3]: < 31.6 nM | IC50 [4]: < 31.6 nM | IC50 [5]: < 31.6 nM | viability, T/C [6]: 42.9% | viability, T/C [7]: 12.5% | viability, T/C [8]: 7.53% | viability, T/C [9]: 3.2% | viability, T/C [10]: 2.78% | viability, T/C [11]: 2.04% | viability, T/C [12]: 10.9% | viability, T/C [13]: 6.89% | viability, T/C [14]: 5.14% | viability, T/C [15]: 3.73% | viability, T/C [16]: 1.95% | viability, T/C [17]: 2.12% | viability, T/C [18]: 10.8% | viability, T/C [19]: 6.88% | viability, T/C [20]: 5.11% | viability, T/C [21]: 2.88% | viability, T/C [22]: 1.51% | viability, T/C [23]: 1.29% | viability, T/C [24]: 3% | viability, T/C [25]: 1.96% | viability, T/C [26]: 1.34% | viability, T/C [27]: 1.09% | viability, T/C [28]: 0.1% | viability, T/C [29]: 0.3% | viability, T/C [30]: 0.1% | viability, T/C [31]: 0.09% | viability, T/C [32]: 0.1% | viability, T/C [33]: 0.08% | viability, T/C [34]: 0.09% | viability, T/C [35]: 0.15%

SMILES: Cc1cc(C)c(CNC(=O)c2cc(-c3ccc(CN4CCOCC4)cc3)cc3c2cnn3C2CCCC2)c(=O)[nH]1 + CC[C@@]1(O)C(=O)OCc2c1cc1n(c2=O)Cc2cc3c(CN(C)C)c(O)ccc3nc2-1
IC50 [5]: 2120 nM | IC50 [36]: 32.9 nM | IC50 [37]: < 31.6 nM | IC50 [38]: < 31.6 nM | IC50 [39]: < 31.6 nM | viability, T/C [30]: 83.2% | viability, T/C [31]: 84.7% | viability, T/C [32]: 70.6% | viability, T/C [33]: 59.8% | viability, T/C [34]: 45.5% | viability, T/C [35]: 34.9% | viability, T/C [40]: 51.3% | viability, T/C [41]: 38.2% | viability, T/C [42]: 32.5% | viability, T/C [43]: 26.9% | viability, T/C [44]: 20.4% | viability, T/C [45]: 16.3% | viability, T/C [46]: 28.2% | viability, T/C [47]: 26.4% | viability, T/C [48]: 24.4% | viability, T/C [49]: 27% | viability, T/C [50]: 24.9% | viability, T/C [51]: 22.4% | viability, T/C [52]: 30.7% | viability, T/C [53]: 27% | viability, T/C [54]: 27.7% | viability, T/C [55]: 25.6% | viability, T/C [56]: 23.5% | viability, T/C [57]: 22.6% | viability, T/C [58]: 15.7% | viability, T/C [59]: 12.8% | viability, T/C [60]: 11% | viability, T/C [61]: 9.77% | viability, T/C [62]: 6.12% | viability, T/C [63]: 4.56%
